Reference: patent US12692254B2, “Benzimidazole inhibitors of PAD enzymes” (BRISTOL-MYERS SQUIBB COMPANY, priority 2018, dated 2026)
pIC50: −log10 of the molar value.

Each compound was assayed against human PAD4 (hPAD4) (Homo sapiens, UniProt Q9UM07) (assay: RFMS human PAD4 functional assay (rapid-fire mass spectrum)). Conditions: 5 nM hPAD4 enzyme, 250 μM BAEE, 50 μM Calcium; 30 min preincubation, 90 min reaction at 37° C.
Assay type: biochemical
Method in brief: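 PAD4 (10 nM) preincubated 30 min with compound (top final 50 μM), then BAEE substrate added in pH 7.5 HEPES buffer with DTT, 50 μM calcium, TPEN; 90 min at 37° C. After TCA quench, citrulline derivatized with phenyl glyoxal (4 mM final, 30 min, 37° C) and quantified by RapidFire MS against internal standard.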

human PAD4 (hPAD4), sequence (Q9UM07 whole entry): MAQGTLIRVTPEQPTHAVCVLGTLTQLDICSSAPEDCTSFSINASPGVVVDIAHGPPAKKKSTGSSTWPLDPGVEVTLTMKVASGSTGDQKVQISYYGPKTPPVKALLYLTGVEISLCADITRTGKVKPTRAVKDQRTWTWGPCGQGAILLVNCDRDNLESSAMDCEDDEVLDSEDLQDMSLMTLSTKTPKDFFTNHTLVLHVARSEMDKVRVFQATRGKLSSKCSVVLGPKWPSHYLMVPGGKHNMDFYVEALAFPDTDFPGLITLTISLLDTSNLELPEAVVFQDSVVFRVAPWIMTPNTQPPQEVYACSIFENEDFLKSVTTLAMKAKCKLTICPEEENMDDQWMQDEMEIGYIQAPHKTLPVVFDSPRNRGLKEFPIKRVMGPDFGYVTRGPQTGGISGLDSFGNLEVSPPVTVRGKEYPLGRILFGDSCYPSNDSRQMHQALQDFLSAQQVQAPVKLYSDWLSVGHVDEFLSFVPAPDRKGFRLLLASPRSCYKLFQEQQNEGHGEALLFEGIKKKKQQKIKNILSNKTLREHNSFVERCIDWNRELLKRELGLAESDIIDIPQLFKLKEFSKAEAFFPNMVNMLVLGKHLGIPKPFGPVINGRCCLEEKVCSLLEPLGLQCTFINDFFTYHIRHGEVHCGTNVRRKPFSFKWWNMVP

How did the pIC50 turn out when COc1cc(C(=O)N2CC3CCC2[C@@H]3N)cc2nc(-c3cc4cccnc4n3CC3CC3)n(C3CCN(c4ccnc(C)n4)CC3)c12 (stereo partly drawn) [Example 238, (1R.,4R,7R)-2-{2-[1-(cyclopropylmethyl)-1H-pyrrolo[2,3-b]pyridin-2-yl]-7-methoxy-1-[1-(2-methylpyrimidin-4-yl)piperidin-4-yl]-1H-1,3-benzodiazole-5-carbonyl}-2-azabicyclo[2.2.1]heptan-7-amine] was run?
Its pIC50 is 6.04.

How did the pIC50 turn out when CCc1ccccc1-c1nc2cc(C(=O)N3CC4CCC3[C@@H]4N)cc(OC)c2n1CC1CN(c2cncc(C)c2)C1 (stereo partly drawn) [Example 323, (1R,4R,7R)-2-[2-(2-ethytphenyl)-7-methoxy-1-{[1-(5-methylpyridin-3-yl)azetidin-3-yl]methyl}-1H-1,3-benzodiazole-5-carbonyl]-2-azabicyclo[2.2.1]heptan-7-amine] was run?
Its pIC50 is 5.52.

COc1cc(C(=O)N2C[C@H]3CC[C@@H]2[C@@H]3N)cc2nc(-c3cc4cccnc4n3CC3CC3)n(CC3CN(C(=O)C4CC4)C3)c12 [Example 123, (1R,4R,7R)-2-{1-[(1-cyclopropanecarbonylazetidin-3-yl)methyl]-2-[1-(cyclopropylmethyl)-1H-pyrrolo[2,3-b]pyridin-2-yl]-7-methoxy-1H-1,3-benzodiazole-5-carbonyl}-2-azabicyclo[2.2.1]heptan-7-amine] was tested. Which pIC50 did it give?
Its pIC50 is 7.00.

How did the pIC50 turn out when COc1cc(C(=O)N2CC3CCC2[C@@H]3N)cc2nc(-c3cc4ccccc4n3CC3CC3)n(Cc3cnn(-c4cccc(O)n4)c3)c12 (stereo partly drawn) [Example 388, 6-[4-({5-[(7R)-7-amino-2-azabicyclo[2.2.1]heptane-2-carbonyl]-2-[1-(cyclopropylmethyl)-1H-indol-2-yl]-7-methoxy-1H-1,3-benzodiazol-1-yl}methyl)-1H-pyrazol-1-yl]pyridin-2-ol] was run?
The pIC50 was 7.37.

With COc1cc(C(=O)N2C[C@H]3CC[C@@H]2[C@@H]3N)cc2nc(-c3cc4ccccc4n3CC3CC3)n(Cc3ccnn3C)c12 [Example 265, (1R,4R,7R)-2-{2-[1-(cyclopropylmethyl)-1H-indol-2-yl]-7-methoxy-1-[(1-methyl-1H-pyrazol-5-yl)methyl]-1H-1,3-benzodiazole-5-carbonyl}-2-azabicyclo[2.2.1]heptan-7-amine] as the compound, how does the pIC50 read?
Its pIC50 is 7.19.

How did the pIC50 turn out when COC(=O)N1CC(Cn2c(-c3cc4cccnc4n3CC3CC3)nc3cc(C(=O)N4C[C@H]5CC[C@@H]4[C@@H]5N)cc(OC)c32)C1 [Example 132, methyl 3-({5-[(1R,4R,7R)-7-amino-2-azabicyclo[2.2.1]heptane-2-carbonyl]-2-[1-(cyclopropylmethyl)-1H-pyrrolo[2,3-b]pyridin-2-yl]-7-methoxy-1H-1,3-benzodiazol-1-yl}methyl)azetidine-1-carboxylate] was run?
The pIC50 was 6.83.

How did the pIC50 turn out when COc1cc(C(=O)N2C[C@H](N)C[C@@H](F)C2)cc2nc(-c3cc4cccnc4n3CC3CC3)n(Cc3ccn(C)n3)c12 [Example 516, (3R,5R)-1-{2-[1-(cyclopropylmethyl)-1H-pyrrolo[2,3-b]pyridin-2-yl]-7-methoxy-1-[(1-methyl-1H-pyrazol-3-yl)methyl]-1H-1,3-benzodiazole-5-carbonyl}-5-fluoropiperidin-3-amine] was run?
Its pIC50 is 6.24.

COc1cc(C(=O)N2CC3CCC2[C@@H]3N)cc2nc(-c3cc4cccnc4n3CC3CC3)n(CC3CN(C(=O)c4ccc(C#N)cc4F)C3)c12 (stereo partly drawn) [Example 454, 4-[3-({5-[(7R)-7-amino-2-azabicyclo[2.2.1]heptane-2-carbonyl]-2-(1-(cyclopropylmethyl)-1H-pyrrolo[2,3-b]pyridin-2-yl]-7-methoxy-1H-1,3-benzodiazol-1-yl}methyl)azetidine-1-carbonyl]-3-fluorobenzointrile] was tested. Which pIC50 did it give?
The pIC50 was 7.28.

COc1cc(C(=O)N2C[C@H]3CC[C@@H]2[C@@H]3N)cc2nc(-c3cc4cccnc4n3CC3CC3)n(CC3CN(C(=O)c4cnc(NCC(C)(C)O)nc4)C3)c12 [Example 121, 1-({5-[3-({5-[(1R,4R,7R)-7-amino-2-azabicyclo[2.2.1]heptane-2-carbonyl]-2-[1-(cyclopropylmethyl)-1H-pyrrolo[2,3-b]pyridin-2-yl]-7-methoxy-1H-1,3-benzodiazol-1-yl}methyl)azetidine-1-carbonyl]pyrimidin-2-yl}amino)-2-methylpropan-2-ol] was tested. Which pIC50 did it give?
Its pIC50 is 7.02.

COc1cc(C(=O)N2CC(Cn3c(-c4cc5cccnc5n4CC4CC4)nc4cc(C(=O)N5CC6CCC5[C@@H]6N)cc(OC)c43)C2)ccn1 (stereo partly drawn) [Example 441, (7R)-2-{2-[1-(cyclopropylmethyl)-1H-pyrrolo[2,3-b]pyridin-2-yl]-7-methoxy-1-{[1-(2-methoxypyridine-4-carbonyl)azetidin-3-yl]methyl}-1H-1,3-benzodiazole-5-carbonyl}-2-azabicyclo[2.2.1]heptan-7-amine] was tested. Which pIC50 did it give?
Its pIC50 is 7.42.

COc1cc(C(=O)N2CC3CCC2[C@@H]3N)cc2nc(-c3cc4ccccc4n3CC3CC3)n(CC3CN(C(=O)c4ccnc(C)c4)C3)c12 (stereo partly drawn) [Example 421, (7R)-2-{2-[1-(cyclopropylmethyl)-1H-indol-2-yl]-7-methoxy-1-{[1-(2-methylpyridine-4-carbonyl)azetidin-3-yl]methyl}-1H-1,3-benzodiazole-5-carbonyl}-2-azabicyclo[2.2.1]heptan-7-amine] was tested. Which pIC50 did it give?
The pIC50 was 7.68.

How did the pIC50 turn out when COc1cc(C(=O)N2C[C@H](N)C[C@@H](F)C2)cc2nc(-c3cc4ccccc4n3CC3CC3)n(CC3CC3)c12 [Example 480, (3R,5R)-1-[1-(cyclopropylmethyl)-2-[1-(cyclopropylmethyl)-1H-indol-2-yl]-7-methoxy-1H-1,3-benzodiazole-5-carbonyl]-5-fluoropiperidin-3-amine] was run?
Its pIC50 is 6.52.

With CCn1cc(Cn2c(-c3cc4cccnc4n3CC3CC3)nc3cc(C(=O)N4CC5CCC4[C@@H]5N)cc(OC)c32)cn1 (stereo partly drawn) [Example 489, (7R)-2-{2-[1-(cyclopropylmethyl)-1H-pyrrolo[2,3-b]pyridin-2-yl]-1-[(1-ethyl-1H-pyrazol-4-yl)methyl]-7-methoxy-1H-1,3-benzodiazole-5-carbonyl}-2-azabicyclo[2.2.1]heptan-7-amine] as the compound, how does the pIC50 read?
The pIC50 was 7.26.

COc1cc(C(=O)N2C[C@H](N)C[C@@H](F)C2)cc2nc(-c3cc4cccnc4n3CC3CC3)n(Cc3cn[nH]c3)c12 [Example 500, (3R,5R)-1-{2-[1-(cyclopropylmethyl)-1H-pyrrolo[2,3-b]pyridin-2-yl]-7-methoxy-1-[(1H-pyrazol-4-yl)methyl]-1H-1,3-benzodiazole-5-carbonyl}-5-fluoropiperidin-3-amine] was tested. Which pIC50 did it give?
The pIC50 was 6.90.

How did the pIC50 turn out when COc1cc(C(=O)N2CC3CCC2[C@@H]3N)cc2nc(-c3cc4cccnc4n3CC3CC3)n(CC3CN(C(=O)[C@H]4C[C@@H]4C)C3)c12 (stereo partly drawn) [Example 106, (1R,4R,7R)-2-{2-[1-(cyclopropylmethyl)-1H-pyrrolo[2,3-b]pyridin-2-yl]-7-methoxy-1-({1-[(1S,2S)-2-methylcyclopropanecarbonyl]aze-tidin-3-yl}methyl)-1H-1,3-benzodiazole-5-carbonyl}-2-azabicyclo[2.2.1]heptan-7-amine] was run?
The pIC50 was 7.49.

COc1cc(C(=O)N2C[C@H]3CC[C@@H]2[C@@H]3N)cc2nc(-c3csc4ccc(Cl)cc34)n(CC3CN(c4ccnc(C)n4)C3)c12 [Example 324, (1R,4R,7R)-2-[2-(5-chloro-1-benzothiophen-3-yl)-7-methoxy-1-{[1-(2-methylpyrimidin-4-yl)azetidin-3-yl]methyl}-1H-1,3-benzodiazole-5-carbonyl]-2-azabicyclo[2.2.1]heptan-7-amine] was tested. Which pIC50 did it give?
Its pIC50 is 5.73.

With COC(=O)c1cccc(-n2cc(Cn3c(-c4cc5cccnc5n4CC4CC4)nc4cc(C(=O)N5C[C@H](N)C[C@@H](F)C5)cc(OC)c43)cn2)n1 [Example 364, methyl 6-[4-({5-[(3R,5R)-3-amino-5-fluoropipendine-1-carbonyl]-2-[1-(cyclopropylmethyl)-1H-pyrrolo[2,3-b]pyridin-2-yl]-7-methoxy-1H-1,3-benzodiazol-1-yl}methyl)-1H-pyrazol-1-yl]pyridine-2-carboxylate] as the compound, how does the pIC50 read?
The pIC50 was 7.59.

With COc1cc(C(=O)N2CC3CCC2[C@@H]3N)cc2nc(-c3cc4cccnc4n3CC3CC3)n(CCNC(C)=O)c12 (stereo partly drawn) [Example 289, N-(2-{5-[(1R,4R,7R)-7-amino-2-azabicyclo[2.2.1]heptane-2-carhonyl]-2-[1-(cyclopropylmethyl)-1H-pyrrolo[2,3-b]pyridin-2-yl]-7-methoxy-1H-1,3-benzodiazol-1-yl}ethyl)acetamide] as the compound, how does the pIC50 read?
The pIC50 was 5.89.

How did the pIC50 turn out when COc1cc(C(=O)N2C[C@H]3CC[C@@H]2[C@@H]3N)cc2nc(-c3cc4ccccc4n3C)n(CC3CN(c4ncccn4)C3)c12 [Example 48, (1R,4R,7R)-2-[7-methoxy-2-(1-methyl-1H-indol-2-yl)-1-{[1-(pyrimidin-2-yl)azetidin-3-yl]methyl}-1H-1,3-benzodiazole-5-carbonyl]-2-azabicyclo[2.2.1]heptan-7-amine] was run?
Its pIC50 is 6.91.

With COc1cc(C(=O)N2C[C@H]3CC[C@@H]2[C@@H]3N)cc2nc(-c3cc4cc(Cl)ccc4n3C)n(CC3CN(c4ccnc(C)n4)C3)c12 [Example 61, (1R,4R,7R)-2-[2-(5-chloro-1-methyl-1H-indol-2-yl)-7-methoxy-1-{[1-(2-methylpyrimidin-4-yl)azetidin-3-yl]methyl}-1H-1,3-benzodiazole-5-carbonyl]-2-azabicyclo[2.2.1]heptan-7-amine] as the compound, how does the pIC50 read?
Its pIC50 is 6.73.

COc1ccc2cc(-c3nc4cc(C(=O)N5C[C@H]6CC[C@@H]5[C@@H]6N)cc(OC)c4n3CC3CN(C(=O)c4cnc(C#N)nc4)C3)n(CC3CC3)c2n1 [Example 177, 5-[3-({5-[(1R,4R,7R)-7-amino-2-azabicyclo[2.2.1]heptane-2-carbonyl]-2-[1-(cyclopropylmethyl)-6-methoxy-1H-pyrrolo[2,3-b]pyridin-2-yl]-7-methoxy-1H-1,3-benzodiazol-1-yl}methyl)azetidine-1-carbonyl]pyrimidine-2-carbonitrile] was tested. Which pIC50 did it give?
The pIC50 was 7.27.
